Values of other authors, collected in patent publication US11559495B1, “Icariin nano-pharmaceutical formulation” (King Abdulaziz University, priority 2022, dated 2023).

Legend:
MAO-A = biological target: T1, MAO-A (Homo sapiens, UniProt P21397)
T1 sequence (P21397 1-527): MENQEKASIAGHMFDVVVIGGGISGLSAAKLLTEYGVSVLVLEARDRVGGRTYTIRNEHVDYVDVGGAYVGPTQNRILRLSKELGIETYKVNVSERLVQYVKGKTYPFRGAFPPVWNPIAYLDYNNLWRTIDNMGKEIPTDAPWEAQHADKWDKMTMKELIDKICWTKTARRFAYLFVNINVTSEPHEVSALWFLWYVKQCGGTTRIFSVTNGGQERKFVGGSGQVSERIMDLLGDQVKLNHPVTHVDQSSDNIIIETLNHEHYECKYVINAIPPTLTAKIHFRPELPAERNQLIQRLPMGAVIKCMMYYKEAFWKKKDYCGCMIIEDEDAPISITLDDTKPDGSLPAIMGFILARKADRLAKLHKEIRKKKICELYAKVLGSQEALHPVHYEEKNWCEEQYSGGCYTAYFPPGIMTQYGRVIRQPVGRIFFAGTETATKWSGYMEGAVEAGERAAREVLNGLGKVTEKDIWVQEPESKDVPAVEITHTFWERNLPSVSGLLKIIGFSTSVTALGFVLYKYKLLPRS

[1] = biological target: cGMP-specific phosphodiesterase type 5 (PDE5) (Homo sapiens, UniProt O76074)
MAO-B = biological target: T2, MAO-B (Homo sapiens, UniProt P27338)
T2 sequence (P27338 1-520): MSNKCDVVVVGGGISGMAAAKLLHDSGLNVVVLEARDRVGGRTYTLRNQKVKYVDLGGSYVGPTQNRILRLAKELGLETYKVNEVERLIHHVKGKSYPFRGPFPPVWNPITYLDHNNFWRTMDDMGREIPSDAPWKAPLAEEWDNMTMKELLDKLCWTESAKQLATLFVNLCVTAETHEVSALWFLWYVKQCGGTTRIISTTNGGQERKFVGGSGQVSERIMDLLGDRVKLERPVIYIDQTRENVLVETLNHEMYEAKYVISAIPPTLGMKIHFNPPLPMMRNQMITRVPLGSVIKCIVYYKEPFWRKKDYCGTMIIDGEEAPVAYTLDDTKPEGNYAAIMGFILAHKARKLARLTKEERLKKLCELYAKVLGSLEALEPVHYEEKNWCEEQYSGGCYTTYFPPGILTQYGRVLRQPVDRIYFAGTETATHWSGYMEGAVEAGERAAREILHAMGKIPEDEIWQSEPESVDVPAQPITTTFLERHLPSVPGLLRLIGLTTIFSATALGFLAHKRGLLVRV

MAO-A activity inhibition (MAO-A): inhibited
PDE5 inhibition [1]: inhibitor
MAO-B activity inhibition (MAO-B): inhibited
SMILES: COc1ccc(-c2oc3c(CC=C(C)C)c(O[C@@H]4O[C@H](CO)[C@@H](O)[C@H](O)[C@H]4O)cc(O)c3c(=O)c2O[C@@H]2O[C@@H](C)[C@H](O)[C@@H](O)[C@H]2O)cc1 [ICA, 7-(β-D-Glucopyranosyloxy)-5-hydroxy-4′-methoxy-8-(3-methylbut-2-en-1-yl)-3-(α-L-rhamnopyranosyloxy)flavone]
